Source: patent publication US12083093B2, “Composition for preventing or treating cellular senescence-related diseases comprising salinomycin as effective component” (RESEARCH COOPERATION FOUNDATION OF YEUNGNAM UNIVERSITY, priority 2018, dated 2024)

How the values were obtained:
[1] = tested on: replicative senescent vascular endothelial cells (HUVEC); assay: SAβG activity staining, replicative senescent HUVEC; assay type: cell-based, human; conditions: salinomycin treatment, 4 days; FIG. 4A, 4B
Method: (§1) After dispensing 2×10^5 cells in a 100 mm culture dish, they were cultured in a 37° C., 5% CO2 incubator. When the cells grew to 80-90% in the culture dish, the cells were removed by treatment with trypsin-EDTA, and the number of cells was measured, and the cell population doubling time (PDT) was measured.
(§2) By successively subculturing the cells in the same process as described above, replication aging was induced. PDT of young fibroblasts was 36 hours, PDT of replicative senescent fibroblasts was 12 days, PDT of young vascular endothelial cells was 24 hours, and PDT of replicative senescent vascular endothelial cells was 7 days.
(§3) After each sample was dissolved in DMSO, young cells, replicative senescent cells and senescent cells in which premature aging was induced by treating with doxorubicin were treated with 100 nM salinomycin, 100 nM rapamycin, 100 nM ABT263. After incubation for 4 days in a 37° C., 5% CO2 incubator, the degree of cell survival was confirmed by CCK-8 analysis, the degree of cellular aging was confirmed by senescence-associated β-galactosidase (SAβG) staining, p53 and p16 protein expression analysis.
(§4) The cells were washed with 1× phosphate buffer solution, and fixed with a phosphate buffer solution containing 3.7% (v/v) paraformaldehyde. […]

[2] = tested on: premature senescent human fibroblasts induced by doxorubicin (HDF); assay: CCK-8 cell survival, doxorubicin-induced premature senescent human fibroblasts; assay type: cell-based; conditions: 100 nM, 4 days; compared to DMSO-treated group; p<0.01; FIG. 1C
Method: (§5) Each cell was treated in a serum-free culture solution containing doxorubicin (0.5 μM) for 4 hours. After washing the cells with a serum-free culture solution, the cells were cultured for 4 days in a culture solution containing 10% FBS, and then cellular aging was confirmed by measuring the level of senescence by staining with senescence-associated beta galactosidase.
as §3
(§6) Young cells (1×10^3 cells/well) or senescent cells (2×10^3 cells/well) were dispensed into a 96-well plate, and cultured overnight in a 37° C., 5% CO2 incubator. Salinomycin, ABT263 and rapamycin were treated at each concentration, and then incubated for 4 days in a 37° C., 5% CO2 incubator. […] Then, the absorbance was measured at 450 nm using a Microplate reader.
(§7) The degree of cell survival was expressed as a relative value for the absorbance of the control group treated with only DMSO as 100%. […]

[3] = tested on: replicative senescent human fibroblasts (HDF); assay: Western blot of p53 and p16, replicative senescent human fibroblasts; assay type: cell-based; conditions: FIG. 2C
Method: as §1, §2
After dispensing the cells into a 60 mm culture dish, the cells were cultured overnight in an incubator at 37° C. and 5% CO2. After treatment with salinomycin, ABT263 and rapamycin, it was incubated for 3 days in a 37° C., 5% CO2 incubator. […]
The lysed cells were transferred to a 1.5 ml tube, pipetted 3-4 times, and then left on ice for 20 minutes. After centrifugation at 12,000 rpm for 20 minutes to recover the supernatant, the protein concentration of the supernatant was quantified by BCA analysis. […]

[4] = tested on: premature senescent human fibroblasts induced by doxorubicin (HDF); assay: SAβG activity staining, doxorubicin-induced premature senescent human fibroblasts; assay type: cell-based; conditions: 100 nM, 4 days; compared to DMSO-treated group; FIG. 1A, 1B
Method: as §5, §3
The cells were washed with 1× phosphate buffer solution, and fixed with a phosphate buffer solution containing 3.7% (v/v) paraformaldehyde. After adding 1 mg/ml 5-bromo-4-chloro-3-indolyl-β-D-galactoside, 40 mM citric acid-sodium phosphate (pH 6.0), 5 mM potassium ferricyanide, 5 mM potassium ferrocyanide, 150 mM NaCl, and 2 mM MgCl2 solution, it was reacted at 37° C. for 18 hours. It was stained with eosin as a control stain and cells stained blue in the cytoplasm were identified using an optical microscope. […]

[5] = tested on: premature senescent vascular endothelial cells (HUVEC) by doxorubicin; assay: CCK-8 cell survival, doxorubicin-induced premature senescent HUVEC; assay type: cell-based, human; conditions: 100 nM, 4 days; compared to DMSO-treated group; FIG. 3C
Method: as §5, §3, §6, §7

[6] = tested on: replicative senescent human fibroblasts (HDF); assay: SAβG activity staining, replicative senescent human fibroblasts; assay type: cell-based; conditions: increasing concentration of salinomycin, senescent cells; FIG. 2A, 2B
Method: as §1, §2, §3, §4

CC[C@@H](C(=O)[C@@H](C)[C@@H](O)[C@H](C)[C@@H]1O[C@@H]([C@@H](CC)C(=O)O)CC[C@@H]1C)[C@H]1O[C@]2(C=C[C@@H](O)[C@]3(CC[C@@](C)([C@H]4CC[C@](O)(CC)[C@H](C)O4)O3)O2)[C@H](C)C[C@@H]1C [salinomycin]
SAβG activity [1]: decreased | cell survival (CCK-8) [2]: decreased significantly | expression of p16 protein (Western blot) [3]: reduced | expression of p53 protein (Western blot) [3]: reduced | SAβG activity [4]: significantly reduced | cell survival (CCK-8) [5]: no difference | SAβG activity [6]: decreased in senescent cells in a concentration-dependent manner
